Data set [1] relates to carragheenin edema. The data set is described as follows: acute carragheenin edema inhibition (anti-inflammatory effect). The format is in vivo, male rats. As to conditions: Rattus norvegicus; oral, carragheenin edema, rats; Table 2; read-out: 50% inhibition rate ED50. How it is done:
The edema was induced by subcutaneous injection of 1% carraheenin suspension in saline to the hind paws of male rats weighing 150 to 180 g. Each sample was orally given at the dosage of 100 mg/kg just before the inoculation of carragheenin.

Data set [2] concerns platelet aggregation. The data set is described as follows: blood platelet aggregation inhibition, collagen as inducer. As to conditions: 10^-4 mole, rabbit PRP. The format is cell-based. An excerpt: Blood platelet aggregation inhibiting effect
Male rabbits (Japan original white strain 3.3 to 3.6 kg) were anesthetized with Thiopental sodium and blood was sampled from the carotid artery.

A short description of data set [3]: in vivo. As to conditions: mouse, po. How it is done:
Each sample was dissolved in olive oil or dispersed in 1% Tween 20 aqueous solution.

Data set [4] relates to painful stretchings induced by acetic acid. The data set is described as follows: acetic acid induced stretching (analgesic effect). As to conditions: 100 mg/kg oral, 0.7% acetic acid i.p., mice.
Description: Each sample was orally administrated in the dosage of 100 mg/kg before injection of acetic acid.
Data set [5] concerns thrombosis. Briefly: inhibiting effect on thrombosis (arterio-venous by-pass, silk thread). The format is in vivo, SD type male rats. As to conditions: Rattus norvegicus; 100 mg/kg oral, 5 hours before first circulation, rats; read-out: Thrombosis inh. How it is done: Inhibiting effect on thrombosis:
The inhibiting effects of the samples of the invention on thrombosis were tested by the following test method.
A 0.5 ml of 50 μ/ml of the heparin physiological saline was added through the polyethylene tube before the first blood circulation. After the blood circulation for 15 minutes, the circulation was stopped in the middle of the tubing at artery side with a pinch cock.
Then, 0.2 ml of the heparin physiological saline was added to remove the blood coagulates on the tubing wall and another new polyethylene tubing filled with the heparin solution and containing a piece of new silk thread was attached between the venous and artery tubing ends.
The blood circulation was reestablished by opening the pinch cock. After 15 minutes, the wet weight of thrombus on the silk thread was similarly measured. In the same manner, the third circulation was performed and wet weight of thrombus measured.
The amount of thrombus was given by the equation A. [formula] Each sample was suspended in an aqueous solution of sodium carboxymethyl cellulose and the oral dose of the suspension (100 mg/kg) was performed at 5 hours before the first blood circulation. The amount of thrombus after the oral dose of the sample was calculated in the same manner as that of control circulations.
The thrombosis inhibition rate was given by the equation B. [formula]

What is called ED50 is the dose at which the effect has come halfway, by size or by number of responders. As a reminder, the LD50 is the dose at which mortality reaches 50%.

Take `Cc1ccc(C(=O)c2ccccc2F)c(C)c1` [compound 10]: the ED50 in data set [1] was 90 mg/kg. The “Blood platelet agg. inh. (percentage inhibition of platelet aggregation)” value in data set [2] turned out to be 18.5%. This molecule registered an LD50 at 72 h in data set [3] of 500 mg/kg. Further, in data set [4], the “Analgesic (percentage diminution of times of painful stretchings)” value was 20.3%.
With `CCCCCc1ccc(C(=O)c2ccc(C)cc2)cc1` [compound 84], in data set [2], the “Blood platelet agg. inh. (percentage inhibition of platelet aggregation)” value is 8.6%. Moreover, the LD50 at 72 h in data set [3] came to 10000 mg/kg. For the same molecule, the inhibition in vivo at 100 mg/kg in data set [5] worked out at 16%. Also, the “Analgesic (percentage diminution of times of painful stretchings)” value in data set [4] turned out to be 15.3%.
Turning to `CCCCc1ccc(C(=O)c2ccc(CCCC)cc2)cc1` [compound 43], the “Blood platelet agg. inh. (percentage inhibition of platelet aggregation)” value in data set [2] stood at 3.5%. This molecule displayed a 50% lethal dose (LD50) at 72 h in data set [3] above 10000 mg/kg. Moreover, the inhibition in vivo at 100 mg/kg in data set [5] stood at 86%.
Take `CCCCc1ccc(C(=O)c2ccc(F)cc2C)cc1` [compound 46]: in data set [1], the ED50 is 400 mg/kg. In data set [2], the “Blood platelet agg. inh. (percentage inhibition of platelet aggregation)” value is given as 16.5%. For the same molecule, in data set [3], the LD50 at 72 h came out at 2000 mg/kg. The “Analgesic (percentage diminution of times of painful stretchings)” value in data set [4] is 13.4%.
Turning to `CCCCCCOc1ccc(C(=O)Cc2ccc(Cl)cc2)cc1` [compound 62], in data set [2], the “Blood platelet agg. inh. (percentage inhibition of platelet aggregation)” value was found to be 12.3%. In data set [5], the inhibition in vivo at 100 mg/kg worked out at 7.8%.
`CCCCc1ccc(C(=O)c2ccccc2C)cc1` [compound 40]: in data set [1], the ED50 came out at 120 mg/kg. The “Blood platelet agg. inh. (percentage inhibition of platelet aggregation)” value in data set [2] worked out at 11.9%. Also, the LD50 at 72 h in data set [3] is 2000 mg/kg. Also, in data set [4], the “Analgesic (percentage diminution of times of painful stretchings)” value came to 20.3%.
Turning to `Cc1ccc(C(=O)c2ccccc2)c(C)c1` [compound 37], the “Blood platelet agg. inh. (percentage inhibition of platelet aggregation)” value in data set [2] was determined as 17.4%. The molecule further yielded an LD50 at 72 h in data set [3] of 1000 mg/kg. Further, the inhibition in vivo at 100 mg/kg in data set [5] worked out at 5.3%. For the same molecule, in data set [4], the “Analgesic (percentage diminution of times of painful stretchings)” value is on record as 9.8%.
Regarding `Cc1cc(C)c(C(=O)c2ccccc2F)c(C)c1` [compound 11], the ED50 in data set [1] stood at 22 mg/kg. The “Blood platelet agg. inh. (percentage inhibition of platelet aggregation)” value in data set [2] is given as 16.5%. In addition, the LD50 at 72 h in data set [3] worked out at 500 mg/kg. The “Analgesic (percentage diminution of times of painful stretchings)” value in data set [4] amounted to 13.9%.
As for `Cc1ccccc1C(=O)c1c(C)c(C)cc(C)c1C` [compound 91], the “Blood platelet agg. inh. (percentage inhibition of platelet aggregation)” value in data set [2] is reported as 14.7%. In data set [5], the inhibition in vivo at 100 mg/kg turned out to be 31%.
`CCCCc1ccc(C(=O)C(=O)c2ccccc2)cc1` [compound 29]: in data set [1], the ED50 was 130 mg/kg. The “Blood platelet agg. inh. (percentage inhibition of platelet aggregation)” value in data set [2] is 11.1%. The molecule further gave an LD50 at 72 h in data set [3] of 10000 mg/kg. In data set [4], the “Analgesic (percentage diminution of times of painful stretchings)” value was 2.7%.
On to `CCCc1ccc(C(=O)c2ccccc2F)cc1` [compound 7], for which, in data set [1], the ED50 was determined as 78 mg/kg. Moreover, in data set [2], the “Blood platelet agg. inh. (percentage inhibition of platelet aggregation)” value came out at 23.0%. This molecule also showed an LD50 at 72 h in data set [3] of 1500 mg/kg. For the same molecule, the “Analgesic (percentage diminution of times of painful stretchings)” value in data set [4] stood at 15.0%.
Take `CC(C)c1ccc(C(=O)c2ccccc2)cc1` [compound 21]: in data set [2], the “Blood platelet agg. inh. (percentage inhibition of platelet aggregation)” value was 8.6%. In data set [3], this molecule registered an LD50 at 72 h of 2000 mg/kg. The inhibition in vivo at 100 mg/kg in data set [5] amounted to 5.4%. Besides, the “Analgesic (percentage diminution of times of painful stretchings)” value in data set [4] stood at 16.1%.
For the molecule `CCCc1ccc(C(=O)c2ccccc2C)cc1` [compound 90], in data set [2], the “Blood platelet agg. inh. (percentage inhibition of platelet aggregation)” value stood at 10.8%. For the same molecule, in data set [5], the inhibition in vivo at 100 mg/kg is 15%.
Turning to `O=C(c1ccccc1)c1ccccc1F` [compound 15], the ED50 in data set [1] was found to be 65 mg/kg. Besides, the “Blood platelet agg. inh. (percentage inhibition of platelet aggregation)” value in data set [2] amounted to 23.2%. Also, the LD50 at 72 h in data set [3] was 4000 mg/kg. Besides, in data set [4], the “Analgesic (percentage diminution of times of painful stretchings)” value is 18.5%.
Consider `CCCc1ccc(C(=O)c2ccc(Cl)cc2)cc1` [compound 63], for which the “Blood platelet agg. inh. (percentage inhibition of platelet aggregation)” value in data set [2] is given as 15.6%. The inhibition in vivo at 100 mg/kg in data set [5] is 6.2%.
`CCCCCc1ccc(C(=O)c2ccccc2F)cc1` [compound 9]: the ED50 in data set [1] stood at 22 mg/kg. Besides, the “Blood platelet agg. inh. (percentage inhibition of platelet aggregation)” value in data set [2] is on record as 14.6%. In data set [3], this molecule came in with an LD50 at 72 h of 3000 mg/kg. In data set [4], the “Analgesic (percentage diminution of times of painful stretchings)” value was determined as 15.3%.
Regarding `CCCc1ccc(C(=O)c2ccccc2)cc1` [compound 20], in data set [2], the “Blood platelet agg. inh. (percentage inhibition of platelet aggregation)” value is on record as 36.6%. The LD50 at 72 h in data set [3] was 2000 mg/kg. For the same molecule, in data set [5], the inhibition in vivo at 100 mg/kg stood at 4.1%. Moreover, the “Analgesic (percentage diminution of times of painful stretchings)” value in data set [4] worked out at 17.3%.
For `COc1ccc(C(=O)Cc2ccccc2)cc1` [compound 57], in data set [2], the “Blood platelet agg. inh. (percentage inhibition of platelet aggregation)” value was determined as 12.5%. Also, the inhibition in vivo at 100 mg/kg in data set [5] came to 6.5%.
`Cc1cc(C)c(C(=O)c2ccccc2)cc1C` [compound 32]: the “Blood platelet agg. inh. (percentage inhibition of platelet aggregation)” value in data set [2] worked out at 12.4%. Further, the LD50 at 72 h in data set [3] stood at 2000 mg/kg. Also, the inhibition in vivo at 100 mg/kg in data set [5] was found to be 25%. Further, the “Analgesic (percentage diminution of times of painful stretchings)” value in data set [4] was 26.2%.
Regarding `CCCCc1ccc(C(=O)c2ccc(C)cc2)cc1` [compound 35], the “Blood platelet agg. inh. (percentage inhibition of platelet aggregation)” value in data set [2] amounted to 11.3%. In data set [3], the median lethal dose (LD50) at 72 h is above 10000 mg/kg. For the same molecule, the inhibition in vivo at 100 mg/kg in data set [5] was determined as 26.5%.
As for `Cc1cc(C)c(C(=O)c2ccc(Cl)cc2)c(C)c1` [compound 14], in data set [1], the ED50 worked out at 130 mg/kg. Moreover, the “Blood platelet agg. inh. (percentage inhibition of platelet aggregation)” value in data set [2] is listed as 18.1%. Further, the LD50 at 72 h in data set [3] is 500 mg/kg. The “Analgesic (percentage diminution of times of painful stretchings)” value in data set [4] is recorded as 19.2%.
For `CCCCc1ccc(C(=O)c2ccccc2Cl)cc1` [compound 44], in data set [1], the ED50 came to 70 mg/kg. Moreover, the “Blood platelet agg. inh. (percentage inhibition of platelet aggregation)” value in data set [2] turned out to be 10.5%. This molecule also gave an LD50 at 72 h in data set [3] of 2000 mg/kg. In addition, in data set [4], the “Analgesic (percentage diminution of times of painful stretchings)” value stood at 15.6%.
Regarding `CCc1cc(CC)c(C(=O)c2ccccc2)c(CC)c1` [compound 13], the ED50 in data set [1] was above 400 mg/kg. Besides, in data set [2], the “Blood platelet agg. inh. (percentage inhibition of platelet aggregation)” value is listed as 14.3%. This molecule came in with an LD50 at 72 h in data set [3] of 2000 mg/kg. Moreover, the “Analgesic (percentage diminution of times of painful stretchings)” value in data set [4] turned out to be 15.8%.
In the case of `CCCc1ccc(CCC)c(C(=O)c2ccccc2)c1` [compound 16], the ED50 in data set [1] was 140 mg/kg. In addition, in data set [2], the “Blood platelet agg. inh. (percentage inhibition of platelet aggregation)” value came to 8.6%. For the same molecule, the LD50 at 72 h in data set [3] is 1500 mg/kg. Further, the “Analgesic (percentage diminution of times of painful stretchings)” value in data set [4] is reported as 12.4%.
With `CCCCCCCCCc1ccc(C(=O)c2ccccc2)cc1` [compound 70], the “Blood platelet agg. inh. (percentage inhibition of platelet aggregation)” value in data set [2] is on record as 17.2%. Further, the inhibition in vivo at 100 mg/kg in data set [5] was determined as 10%.
On to `CCCCCc1ccc(C(=O)c2ccc(OC)cc2)cc1` [compound 45], for which the ED50 in data set [1] was above 400 mg/kg. Besides, in data set [2], the “Blood platelet agg. inh. (percentage inhibition of platelet aggregation)” value was 17.7%. The LD50 at 72 h in data set [3] came to 5000 mg/kg. Moreover, the “Analgesic (percentage diminution of times of painful stretchings)” value in data set [4] is on record as 12.5%.
In the case of `CCCCOc1ccc(C(=O)Cc2ccc(Cl)cc2)cc1` [compound 61], the “Blood platelet agg. inh. (percentage inhibition of platelet aggregation)” value in data set [2] is 15.8%. The inhibition in vivo at 100 mg/kg in data set [5] came out at 8.5%.
For the molecule `CCCCc1ccc(CCCC)c(C(=O)c2ccc(C)cc2)c1` [compound 17], the ED50 in data set [1] came out at 180 mg/kg. Further, in data set [2], the “Blood platelet agg. inh. (percentage inhibition of platelet aggregation)” value worked out at 17.3%. In data set [3], the LD50 at 72 h was 2000 mg/kg. For the same molecule, in data set [4], the “Analgesic (percentage diminution of times of painful stretchings)” value was determined as 10.3%.

For the origin of these results see US4124726A, “Anti-inflammatory agent of benzoyl derivative” (priority 1976, dated 1978).
